Values after ≈ are worked out from the molar mass of the structure shown. Values joined by “and” are separate entries in the source; they are usually repeats but may differ in a detail not shown here. Equal entries are not always repeated. Where two headings read alike, the source gives them in different places.
Columns and labels:
Pseudomonas aeruginosa = experiment: Broth microdilution MIC, Example 7 (NCL812 and analogues); format: cell-based; details: for MIC (μg/ml) at 24 hours Pseudomonas #008: Pseudomonas #008, 24 hours
[1] = tested on: Gram-negative bacteria (E. coli and Pseudomonas aeruginosa); experiment: Testing of NCL812 analogues, Gram-negative antibacterial activity; format: cell-based; details: MIC testing
Protocol: Minimum inhibitory concentrations (μg/ml) were determined using the broth microdilution method recommended by the Clinical and Laboratory Standards Institute (CLSI). MIC breakpoints were determined by visual assessment and then confirmed using an ELISA plate reader, measuring absorbance levels at 600 nm. Bacterial growth (turbidity) in the wells with antimicrobial was compared with the amount of growth (turbidity) in the growth-control well (containing no antimicrobial). All isolates were tested in duplicate, if there was a difference of greater than one two-fold dilution in the results, the test was repeated a third time. The purity of the isolates was closely monitored during testing by subculturing the prepared bacterial inoculum onto SBA (sheep blood agar). The MICs of the control strains for the antimicrobial ampicillin were determined for each testing run as an internal quality control. The MIC50, […] and MIC range (minimum and maximum) were calculated for each of the bacterial groups.
MICs were determined against two MRSA strains, two VRE strains and one strain each of E. coli and Pseudomonas aeruginosa.

VRE = experiment: Broth microdilution MIC, Example 7 (NCL812 and analogues); format: cell-based, Enterococcus spp.; details: for activity against VRE among analogues: MIC testing, two VRE strains; for MIC (μg/ml) at 24 hours, VRE 1: isolate VRE 1; for MIC (μg/ml) at 24 hours, VRE 1 / MIC (μg/ml) at 24 hours, VRE 2: 1st and 2nd replicate rows; for MIC (μg/ml) at 24 hours, VRE 2: isolate VRE 2; for MIC: Enterococcus, VRE, 24 h, duplicate lines per compound; for MIC (μg/ml) at 24 hours, VRE 1 / MIC (μg/ml) at 24 hours, VRE 2 / MIC: 24 hours
Summary of the method: (§1)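 Duplicates per isolate, repeated a third time if >one two-fold dilution apart. MIC50, MIC20 and range calculated per bacterial group.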

Escherichia coli = experiment: as above; format: cell-based; details: for MIC (μg/ml) at 24 hours, E. coli: 1st and 2nd replicate rows; for MIC (μg/ml) at 24 hours E. coli ATCC25922: E. coli ATCC25922, 24 hours
MRSA = experiment: as above; format: cell-based, Staphylococcus aureus; details: for activity against MRSA among analogues: MIC testing, two MRSA strains; for MIC (μg/ml) at 24 hours, MRSA 1: isolate MRSA 1; for MIC (μg/ml) at 24 hours, MRSA 1 / MIC (μg/ml) at 24 hours, MRSA 2: 1st and 2nd replicate rows; for MIC (μg/ml) at 24 hours, MRSA 2: isolate MRSA 2; for MIC: Staphylococcus aureus, MRSA, 24 h, duplicate lines per compound; for MIC (μg/ml) at 24 hours, MRSA 1 / MIC (μg/ml) at 24 hours, MRSA 2 / MIC: 24 hours
Summary of the method: as §1

S. aureus ATCC29213 = experiment: Broth microdilution MIC, Example 7 (NCL analogues), Table 42; format: cell-based, Staphylococcus aureus; details: S. aureus ATCC29213, 24 hours
E. faecalis #32 = experiment: as above; format: cell-based, Enterococcus faecalis; details: E. faecalis #32, 24 hours
[2] = 24 hours, 1st and 2nd replicate rows

SMILES | MIC (μg/ml) at 24 hours, P. aeruginosa (Pseudomonas aeruginosa; [2]) [µg/mL] | level of Gram-negative antibacterial activity among analogues [1] | activity against VRE among analogues (VRE) | MIC (μg/ml) at 24 hours, VRE 1 (VRE) [µg/mL] | MIC (μg/ml) at 24 hours, VRE 2 (VRE) | MIC (μg/ml) at 24 hours, E. coli (Escherichia coli; 24 hours) | activity against MRSA among analogues (MRSA) | MIC (μg/ml) at 24 hours, MRSA 1 (MRSA) [µg/mL] | MIC (μg/ml) at 24 hours, MRSA 2 (MRSA) [µg/mL] | MIC (μg/ml) at 24 hours Pseudomonas #008 (Pseudomonas aeruginosa) [µg/mL] | MIC (μg/ml) at 24 hours S. aureus ATCC29213 (S. aureus ATCC29213) | MIC (μg/ml) at 24 hours E. coli ATCC25922 (Escherichia coli) [µg/mL] | MIC (μg/ml) at 24 hours E. faecalis #32 (E. faecalis #32) [µg/mL] | other results
Cl.N=C(N)N/N=C/c1ccc(Cl)cc1 [NCL030] | 128 | highest level of Gram-negative antibacterial activity | greatest activity | 64 | 64 µg/mL | >128 µg/mL | greatest activity | 128 | 128 | – | – | – | – | –
Cl.N=C(N)N/N=C/c1ccc(C(F)(F)F)cc1 [NCL041] | 128 | highest level of Gram-negative antibacterial activity | greatest activity | 64 | 64 µg/mL | 128 µg/mL and 64 µg/mL | greatest activity | 64 | 64 | – | – | – | – | –
Cl.N=C(N)N/N=C/c1cccc(C(F)(F)F)c1 [NCL043] | 128 | highest level of Gram-negative antibacterial activity | greatest activity | 128 | 128 µg/mL and 64 µg/mL | 128 µg/mL | greatest activity | 128 | 128 | – | – | – | – | –
Cc1ccc(/C=N/NC(=N)N)cc1.Cl [NCL044] | 128 | highest level of Gram-negative antibacterial activity | greatest activity | 128 | 128 µg/mL | >128 µg/mL | greatest activity | 128 | 128 | – | – | – | – | –
Cl.N=C(N)N/N=C/c1cccc(Cl)c1 [NCL052] | 128 | highest level of Gram-negative antibacterial activity | greatest activity | 128 | 128 µg/mL | >128 µg/mL | greatest activity | 128 | 128 | – | – | – | – | –
Cl.N=C(N)NN=Cc1ccc(F)cc1 [NCL053] | 128 | highest level of Gram-negative antibacterial activity | – | >128 | >128 µg/mL | >128 µg/mL | – | >128 | >128 | – | – | – | – | –
Cl.N=C(N/N=C/c1cc(O)c(O)c(O)c1)N/N=C/c1cc(O)c(O)c(O)c1 [NCL097, 2,2′-bis[(3,4,5-trihydroxyphenyl)methylene]carbonimidic Dihydrazide Hydrochloride] | – | highest level of Gram-negative antibacterial activity | greatest activity | – | – | – | greatest activity | – | – | – | – | – | – | MIC (μg/ml) at 24 hours, P. aeruginosa (Pseudomonas aeruginosa; P. aeruginosa, 24 hours, duplicate lines per compound, Hydrochloride): >128 µg/mL; MIC (Pseudomonas aeruginosa; Pseudomonas aeruginosa, 24 h, read-out: MIC (μg/ml) at 24 hours, P. aeruginosa, 24 hours, duplicate lines per compound): 128 µg/mL; MIC (VRE; read-out: MIC (μg/ml) at 24 hours, VRE 1, VRE 1): 32 µg/mL; MIC (VRE; read-out: MIC (μg/ml) at 24 hours, VRE 2, VRE 2): 32 µg/mL; MIC (Escherichia coli; Escherichia coli, read-out: MIC (μg/ml) at 24 hours, E. coli, 24 hours, duplicate lines per compound): > 128 µg/mL; MIC (MRSA; read-out: MIC (μg/ml) at 24 hours, MRSA 1, MRSA 1): 128 µg/mL; MIC (MRSA; read-out: MIC (μg/ml) at 24 hours, MRSA 2, MRSA 2): 32 µg/mL
CC(Nc1cc(NC(C)c2ccccc2)ncn1)c1ccccc1 (stereo not drawn) [NCL 183] | – | – | – | – | – | – | – | – | – | >64 | >64 µg/mL | >64 | >64 | –
CC(Nc1cc(NC(C)c2ccccc2)nc(N)n1)c1ccccc1 (stereo not drawn) [NCL 184] | – | – | – | – | – | – | – | – | – | >64 | >64 µg/mL | >64 | 64 (≈ 192 µM) | –
C/C(=N\Nc1cc(N/N=C(\C)c2ccc(Cl)cc2)ncn1)c1ccc(Cl)cc1.Cl [NCL 185] | – | – | – | – | – | – | – | – | – | >64 | >64 µg/mL | >64 | >64 | –
CC(Nc1cnc(NC(C)c2ccc(Cl)cc2)cn1)c1ccc(Cl)cc1 (stereo not drawn) [NCL 186] | – | – | – | – | – | – | – | – | – | >64 | >64 µg/mL | >64 | >64 | –
Cl.Clc1ccc(/C=N/Nc2cc(N/N=C/c3ccc(Cl)cc3)ncn2)cc1 [NCL 187] | – | – | – | – | – | – | – | – | – | >64 | >64 µg/mL | >64 | >64 | –
Cl.[H]/N=C(\N)NN=C(CCCC)c1ccc(Cl)cc1 [NCL 188] | – | – | – | – | – | – | – | – | – | >64 | 32 µg/mL | 64 | 32 | –
Cl.OC/C(=N\Nc1cc(N/N=C(\CO)c2ccc(Cl)cc2)ncn1)c1ccc(Cl)cc1 [NCL 189] | – | – | – | – | – | – | – | – | – | >64 | >64 µg/mL | >64 | >64 | –
Cl.[H]/N=C(/N)NN=C(CNN)c1ccc(Cl)cc1 [NCL 190] | – | – | – | – | – | – | – | – | – | >64 | 32 µg/mL and 64 µg/mL | >64 | 64 | –
C/C(=N\NC(=N)N)c1ccc(Cl)cc1.Cl [NCL 191] | – | – | – | – | – | – | – | – | – | >64 | >64 µg/mL | >64 | >64 | –
Cl.N=C(N)NN=C(C(=O)O)c1ccccc1 [NCL 192] | – | – | – | – | – | – | – | – | – | >64 | >64 µg/mL | >64 | >64 | –

Source: US10253002B2, “Compounds and methods of treating infections” (Neoculi Pty Ltd., priority 2013, dated 2019)
